No end group written: not given here. Bounds are passed on as bounds.

We go through 2 compounds from PMC7516806, “Hybrid Antimicrobial Peptide Targeting Staphylococcus aureus and Displaying Anti-infective Activity in a Murine Model” (Frontiers in Microbiology, 2020).

In data set [1] the test system is E. coli 25922. The experiment in a line: MIC, modified microtiter dilution. Particulars: MHB, 2–7 × 10^5 CFU/ml, 37°C, 24 h, lowest concentration with no turbidity, at least three independent repeats. In kind it is cell-based, Escherichia coli. The source says: (§1) The experiment was repeated at least three times independently.
The subject of data set [2] is E. coli UB1005. The experiment in a line: MIC, modified microtiter dilution. In kind it is cell-based, Escherichia coli. The conditions noted are these: MHB, 2–7 × 10^5 CFU/ml, 37°C, 24 h, no turbidity, at least three independent repeats.
From the text: as §1

For data set [3], the system named is E. coli K88. The conditions noted are these: MHB, 2–7 × 10^5 CFU/ml, 37°C, 24 h, no turbidity, at least three independent repeats. The source says:
(§2) The bacterial strains Escherichia coli (E. coli) ATCC 25922, E. coli K88, E. coli K99, Pseudomonas aeruginosa (P. aeruginosa) ATCC 27853, Escherichia coli (E. coli) UB1005, Salmonella typhimurium 14028, Salmonella pullorum (S. pullorum) C7913, S. typhimurium C7731, S. aureus ATCC 29213, MRSA ATCC 43300, and S. aureus ATCC 25923 were obtained from the College of Veterinary Medicine, Northeast Agricultural University, China. Lactobacillus plantarum (L. plantarum) 8014, Lactobacillus rhamnosus (L. rhamnosus) 7469, L. rhamnosus 1.0911, L. rhamnosus 1.0936, and L. rhamnosus 1.0385 were obtained from the Key Laboratory of Food College, Northeast Agricultural University, China.
(§3) As in a previous study, the antimicrobial activities of the AMPs were investigated using a modified standard microtiter dilution method ([Dong et al., 2014]). The peptides were serially diluted with a solution containing 0.01% acetic acid and 0.2% bovine serum albumin (BSA, Sigma) in 96-well plates. The bacteria grew to the mid-log phase and then were dissolved in MHB at concentration of 2–7 × 10^5 CFU/ml. The peptides and bacterial solution were mixed in equal volume in a 37°C incubator for 24 h. […] Mueller-Hinton broth with microorganisms was used as the positive control, and the pure broth was used as the negative control. The experiment was repeated at least three times independently.

The subject of data set [4] is E. coli K99. Particulars: MHB, 2–7 × 10^5 CFU/ml, 37°C, 24 h, no turbidity, at least three independent repeats.
From the text: as §2, §3

For data set [5], the system named is S. typhimurium 14028. The experiment in a line: MIC, modified microtiter dilution. In kind it is cell-based, Salmonella typhimurium. The conditions noted are these: MHB, 2–7 × 10^5 CFU/ml, 37°C, 24 h, no turbidity, at least three independent repeats.
From the text: as §1

Data set [6] concerns S. typhimurium 7731. The experiment in a line: MIC, modified microtiter dilution. Particulars: MHB, 2–7 × 10^5 CFU/ml, 37°C, 24 h, no turbidity, at least three independent repeats. In kind it is cell-based, Salmonella typhimurium.
From the text: as §1

Data set [7] deals with S. pullorum 7913. As to the kind of experiment: MIC, modified microtiter dilution. In kind it is cell-based, Salmonella pullorum. Particulars: MHB, 2–7 × 10^5 CFU/ml, 37°C, 24 h, no turbidity, at least three independent repeats.
From the text: as §1

Data set [8] has as its system P. aeruginosa 27853. As to the kind of experiment: MIC, modified microtiter dilution. In kind it is cell-based, Pseudomonas aeruginosa. Particulars: MHB, 2–7 × 10^5 CFU/ml, 37°C, 24 h, no turbidity, at least three independent repeats.
From the text: as §1

The subject of data set [9] is S. aureus 25923. The experiment in a line: MIC, modified microtiter dilution. In kind it is cell-based, Staphylococcus aureus. Particulars: MHB, 2–7 × 10^5 CFU/ml, 37°C, 24 h, no turbidity, at least three independent repeats.
From the text: as §1

Data set [10] deals with S. aureus 29213. The experiment in a line: MIC, modified microtiter dilution. In kind it is cell-based, Staphylococcus aureus. The conditions noted are these: MHB, 2–7 × 10^5 CFU/ml, 37°C, 24 h, no turbidity, at least three independent repeats.
From the text: as §1

Data set [11] relates to MRSA 43300. In kind it is cell-based, Staphylococcus aureus. The conditions noted are these: MHB, 2–7 × 10^5 CFU/ml, 37°C, 24 h, no turbidity, at least three independent repeats.
From the text: as §1

Data set [12] has as its system L. plantarum 8014. The experiment in a line: MIC, modified microtiter dilution. In kind it is cell-based, Lactobacillus plantarum. The conditions noted are these: 2–7 × 10^5 CFU/ml, 37°C, 24 h, no turbidity, at least three independent repeats.
From the text: as §1

Data set [13] has as its system L. rhamnosus 1.0385. As to the kind of experiment: MIC, modified microtiter dilution. In kind it is cell-based, Lactobacillus rhamnosus. The conditions noted are these: 2–7 × 10^5 CFU/ml, 37°C, 24 h, no turbidity, at least three independent repeats.
From the text: as §1

In data set [14] the test system is L. rhamnosus 1.0911. As to the kind of experiment: MIC, modified microtiter dilution. In kind it is cell-based, Lactobacillus rhamnosus. Particulars: 2–7 × 10^5 CFU/ml, 37°C, 24 h, no turbidity, at least three independent repeats.
From the text: as §1

In data set [15] the test system is L. rhamnosus 1.0936. The experiment in a line: MIC, modified microtiter dilution. In kind it is cell-based, Lactobacillus rhamnosus. The conditions noted are these: 2–7 × 10^5 CFU/ml, 37°C, 24 h, no turbidity, at least three independent repeats.
From the text: as §1

Data set [16] relates to L. rhamnosus 7469. The experiment in a line: MIC, modified microtiter dilution. In kind it is cell-based, Lactobacillus rhamnosus. Particulars: 2–7 × 10^5 CFU/ml, 37°C, 24 h, no turbidity, at least three independent repeats.
From the text: as §1

The subject of data set [17] is S. aureus 29213. The experiment in a line: MIC in the presence of physiological salts. In kind it is cell-based, Staphylococcus aureus. The conditions noted are these: three independent repeats, unit not given in Table 4. Here is the method: as §1
The MIC of peptides was determined in the presence of salts at physiological concentrations (150 mM NaCl, 4.5 mM KCl, 6 μM NH4Cl, 8 μM ZnCl2, 1 mM MgCl2, 2 mM CaCl2, and 4 μM FeCl3) as described previously ([Dong et al., 2014]). All experiments were performed three times independently.

Data set [18] relates to human red blood cells (hRBCs). The experiment in a line: Hemolysis assay. In kind it is cell-based. Particulars: 1.5 h, 37°C, absorbance 570 nm; 0.1% Triton X-100 positive control. Here is the method: The cytotoxicity of peptides was determined by healthy human erythrocytes and the murine macrophage cell line RAW 264.7 via a hemolysis assay and MTT dye reduction assay, respectively ([Wang et al., 2018]). In the hemolysis assay, fresh hRBCs from healthy people were centrifuged for 5 min at 1,000 × g and then washed three times with PBS (pH = 7.2). The 100 μL erythrocyte suspension and peptides were incubated for 1.5 h in an incubator at 37°C. The 96-well plates were centrifuged at 1,000 × g for 5 min, and the supernatants were carefully aspirated. The absorbance at 570 nm indicated the leakage of hemoglobin. The hRBCs in the PBS sample was used as the negative control, and 0.1% Triton X-100 addition served as the positive control. In the MTT dye reduction assay, 1.0–2.0 × 10^5 cells were plated in 96-well plates and then treated with various concentrations of peptides for 4 h at 37°C in a 5% CO2 incubator. Subsequently, 50 μL of MTT was added to the plated cells at a final concentration of 0.5 mg/mL and incubated for 4 h. Then, the cells were centrifuged at 1000 × g for 5 min, and the supernatants were discarded. Formazan crystals were dissolved in 150 μL of DMSO, and the OD570 nm was measured using a microplate reader (TECAN GENios F129004; TECAN, Austria). The experiment was repeated three times independently.

The subject of data set [19] is S. aureus 29213. As to the kind of experiment: Mouse model of subcutaneous infection. In kind it is in vivo, ICR mice. Particulars: 80× MIC. Here is the method:
(§4) To assess the antimicrobial activity of the peptide in vivo, a mouse model of subcutaneous infection was used ([Huang et al., 2011a]; [Omolo et al., 2017]). Female Institute for Cancer Research (ICR) mice (SPF, 20–25 g) were purchased from WeiTonglihua Co., Ltd. (Beijing, China), with eight animals per group. The mice were shaved on their backs and disinfected. S. aureus 29213 (100 μL) at a concentration of 1 × 10^8 CFU/mL was injected into the superficial skin of the mice. The mice were divided into four groups (n = 4), as follows: S. aureus + saline, S. aureus + S2 (80× MIC, 100 μL), S. aureus + vancomycin (Van) (80× MIC, 100 μL), and saline. S2, vancomycin, and saline were injected at the same site 1 h after infection. The mice were monitored over 24 h in an environmentally controlled room at 25 ± 1°C and 55 ± 5% relative humidity with a 12 h light/dark cycle.
(§5) To image the infected skin tissues, the mice were euthanized 24 h after the injection of S. aureus. Samples were fixed in 4% buffered paraformaldehyde and subjected to hematoxylin/eosin (HE) staining. The antimicrobial activity in vivo was determined by colony counting of infected skin samples. Skin homogenates were serially diluted in saline and incubated at 37°C for 24 h.

Data set [20] relates to IL-6. As to the kind of experiment: Cytokine ELISA in infected skin. Particulars: 24 h after treatment, P < 0.05. In kind it is in vivo, ICR mice. Here is the method: as §4
(§6) The mice were treated as described above. Skin samples were treated according to the manufacturer’s instructions. The levels of tumor necrosis factor-alpha (TNF-α), interleukin-6 (IL-6), and granulocyte-macrophage colony-stimulating factor (GM-CSF) in infected skin were measured using enzyme-linked immunosorbent assay (ELISA) kits following the manufacturer’s instructions.
(In general: An ELISA detects its analyte on a solid surface through an enzyme-linked reagent.)

The subject of data set [21] is TNF-α. As to the kind of experiment: Cytokine ELISA in infected skin. In kind it is in vivo, ICR mice. Particulars: 24 h after treatment, P < 0.05. Here is the method:
as §4, §6

In data set [22] the test system is S. aureus 29213. The experiment in a line: Histology (HE) of infected skin tissue. Particulars: 24 h after injection of S. aureus. In kind it is in vivo, ICR mice. Here is the method:
as §4, §5

Turning to RWWWLL-NH2 [Peptide S7], the “MIC E. coli 25922” value in data set [1] was found to be 16 µM. The “MIC E. coli UB1005” value in data set [2] is 16 µM. In addition, in data set [3], the “MIC E. coli K88” value is 16 µM. The “MIC E. coli K99” value in data set [4] amounted to 16 µM. The “MIC S. typhimurium 14028” value in data set [5] was determined as 32 µM. Also, the “MIC S. typhimurium 7731” value in [6] turned out to be 16 µM. Moreover, in [7], the “MIC S. pullorum 7913” value was over 64 µM. In addition, the “MIC P. aeruginosa 27853” value in [8] is over 64 µM. The “MIC S. aureus 25923” value in data set [9] stood at 8 µM. Also, the “MIC S. aureus 29213” value in data set [10] was determined as 8 µM. For the same compound, the “MIC MRSA 43300” value in data set [11] came out at 8 µM. Further, in [12], the “MIC L. plantarum 8014” value is over 64 µM. In [13], the “MIC L. rhamnosus 1.0385” value was over 64 µM. Moreover, the “MIC L. rhamnosus 1.0911” value in [14] was over 64 µM. In addition, in [15], the “MIC L. rhamnosus 1.0936” value is over 64 µM. Moreover, the “MIC L. rhamnosus 7469” value in data set [16] was over 64 µM. Further, the “MIC against S. aureus 29213, FeCl3” value in data set [17] (4 μM FeCl3) was 8 µM. For the same compound, the “MIC against S. aureus 29213, NH4Cl” value in data set [17] (6 μM NH4Cl) was found to be 8 µM. In [17] (8 μM ZnCl2), the “MIC against S. aureus 29213, ZnCl2” value was 4 µM. In addition, in [17] (1 mM MgCl2), the “MIC against S. aureus 29213, MgCl2” value was determined as 8 µM. For the same compound, the “MIC against S. aureus 29213, CaCl2” value in data set [17] (2 mM CaCl2) worked out at 16 µM. For the same compound, in [17] (4.5 mM KCl), the “MIC against S. aureus 29213, KCl” value amounted to 8 µM. For the same compound, the “MIC against S. aureus 29213, NaCl” value in data set [17] (150 mM NaCl) is 8 µM. In data set [18], the “hemolytic activity against hRBCs” value is “barely exhibited hemolysis effects”.

As to `CN[C@H](CC(C)C)C(=O)N[C@H]1C(=O)N[C@@H](CC(N)=O)C(=O)N[C@H]2C(=O)N[C@H]3C(=O)N[C@H](C(=O)N[C@H](C(=O)O)c4cc(O)cc(O)c4-c4cc3ccc4O)[C@H](O)c3ccc(c(Cl)c3)Oc3cc2cc(c3O[C@@H]2O[C@H](CO)[C@@H](O)[C@H](O)[C@H]2O[C@H]2C[C@](C)(N)[C@H](O)[C@H](C)O2)Oc2ccc(cc2Cl)[C@H]1O` [vancomycin, reference compound], the “decrease in bacterial colonies at infection site versus control group” value in data set [19] (100 μL injected at the infected site 1 h after infection, skin homogenate colony count after 24 h, P < 0.01) stood at 10 fold. Moreover, the “ulceration (lesion) size, length × width” value in data set [19] (100 μL, 1 h after infection) is “significantly reduced ulceration sizes”. In addition, the “IL-6 generation in infected skin” value in data set [20] is on record as “suppressed”. Moreover, in data set [21], the “TNF-α generation in infected skin” value is “suppressed”. The “histomorphological changes of skin tissue (HE)” value in data set [22] is given as “good recovery”.
